According to article PMC5841658, “Anti-cancer characteristics and ototoxicity of platinum(II) amine complexes with only one leaving ligand” (PLoS ONE, 2018):
Where “and” joins values, the source holds several entries; their conditions need not be identical. Equal entries are not always repeated.

Assays:
[1] = tested on: zebrafish utricle hair cells; experiment: Hair cell quantification, utricle; assay type: in vivo, Danio rerio; settings: extrastriolar (E1-E3) and striolar (S1-S3) regions, 25 mg/kg i.p., 48 hours
Excerpt: Zebrafish (Danio rerio) were purchased from a commercial supplier (Segrest Farms, Gibsonton, FL) and maintained in the animal facility of Western Kentucky University according to a protocol approved by the Institutional Animal Care and Use Committee. All zebrafish used in this study were a mix of male and female adult animals at least 6 months of age and were maintained according to standard methods.
Zebrafish were sedated with tricaine methanesulfonate (MS-222, Argent, Redmond, WA), weighed, and then intraperitoneally microinjected with 25 mg/kg body weight of platinum test compound or an equivalent volume of vehicle (0.9% NaCl) control using a 35 gauge syringe operated by a Micro4 microsyringe pump controller (World Precision Instruments, Sarasota, FL). After injection, fish were returned to holding tanks for either 24 or 48 hours and then subjected to hearing tests followed by hair cell quantification analysis. […]
GraphPad Prism v6 (La Jolla, CA) was used for all statistical analysis. Nuclear fraction platinum uptake as a total percent of combined nuclear and cytosolic uptake was analyzed using a one-way ANOVA (Brown-Forsyth test; p ≤ 0.05). IC50 values were calculated in Prism using the sigmoidal, 4PL, x is log(concentration) analysis feature or were calculated from Prism derived values using the equation y = mx + b. […]

[2] = tested on: A549 lung cancer cell line; experiment: MTT cellular viability assay, A549; assay type: cell-based; settings: 72 hours, ± standard deviation
Description: Cell lines were obtained from American Type Culture Collection (ATCC, Manassas, VA). […] Caco-2 (ATCC: HTB-37) colorectal cancer was grown in EMEM with 20% FBS and 1% penicillin/streptomycin. All cell lines were incubated at 37°C in 5% CO2 with passaging every 4–7 days. Cell culture media and supplements were obtained from ATCC, Atlanta Biologicals (Flowery Branch, GA), Mediatech (Tewksbury, MA), Fisher Scientific (Waltham, MA), Gibco (Gaithersburg, MD) and Sigma-Aldrich.
The MTT (3-(4,5-dimethylthiazol-2-yl)-2,5-diphenyltetrazolium bromide) cellular viability assay was performed in all three cancer cell lines and the non-cancer cell line. Following a protocol adapted from, cells were seeded at 5,000 cells per well in 96-well plates and incubated at 37°C in 5% CO2 in F-12K Medium or EMEM with FBS supplementation and 1% penicillin/streptomycin for 24 hours. Then, wells were treated in replicates of six according to a concentration series (500, 50, 5, 0.5, 0.05 μM) of specific platinum complexes for 72 hours. A negative control (media only), positive control (Triton X-100) and series of blanks were simultaneously performed. The MTT assay was run for 2 hours, then well contents were rapidly evacuated out and all wells were treated with MTT solubilization solution [10% Triton X-100 in acidic (0.1N HCl) isopropanol] for 15 minutes before the plates were read using a BioTek Synergy HT microplate plate reader (570 nm and 690 nm absorbance wavelengths). Reagents, cell culture media and supplements were obtained from ATCC, Atlanta Biologicals, Mediatech, Fisher Scientific, Gibco and Sigma-Aldrich.
GraphPad Prism v6 (La Jolla, CA) was used for all statistical analysis. Nuclear fraction platinum uptake as a total percent of combined nuclear and cytosolic uptake was analyzed using a one-way ANOVA (Brown-Forsyth test; p ≤ 0.05). IC50 values were calculated in Prism using the sigmoidal, 4PL, x is log(concentration) analysis feature or were calculated from Prism derived values using the equation y = mx + b. MTT assay standard deviation values were calculated using ED50plus v1.0 online software. AEP threshold data were analyzed by two-way ANOVA (Dunnett’s multiple comparisons test; p ≤ 0.05) and hair cell quantification data by two-way ANOVA (Tukey’s multiple comparisons test; p ≤ 0.05). AEP temporary threshold shifts (TTS) were calculated by subtracting the mean vehicle threshold for each frequency from each treatment threshold. TTS data were averaged across frequencies for each treatment and were analyzed by one-way ANOVA (Tukey’s multiple comparisons test; p ≤ 0.05).

5'-GMP = experiment: Kinetic 5'-GMP assay (1H NMR, rate of reaction of platinum complex with 5'-GMP); assay type: biochemical; settings: D2O, pH 7, 25°C; for Rate constant for the reaction of 5'-GMP with the platinum(II) complex: excess platinum, fitted first order in each reactant
Description: The reaction of each platinum compound with 5'-GMP (Acros) was monitored using ^1H NMR spectroscopy to observe the disappearance of the H8 signal of the unreacted 5'-GMP at ≈8 ppm and the appearance of a product signal ≈0.5–1.0 ppm downfield of the unreacted 5'-GMP. The reaction was conducted with excess platinum compound present in each case. A 10 mM solution of 5'-GMP and a 10–20 mM solution of the platinum(II) compound were prepared separately in D2O. The pH (uncorrected for the effects of deuterium) of each solution was adjusted to 7, and the samples were equilibrated to 25°C in a water bath. Aliquots of the two solutions were combined and placed in an NMR tube; typically, the final concentrations of platinum was 5–18 mM and the concentration of 5'-GMP was 1 mM (except for the [Pt(dien)Cl]^+ reaction, where it was 0.5 mM). Samples were maintained at 25°C throughout the NMR experiment. The H8 resonances were integrated and the data was fitted to an equation that was first order in each reactant using DynaFit to determine rate constants. At least two runs were conducted for each platinum compound using fresh samples.

[3] = tested on: A549, Caco2, HTB16 and IMR90 cell lines; experiment: MTT cellular viability assay, comparison over all cell lines; assay type: cell-based; settings: in our cell lines (Table 2)
Description: Cell lines were obtained from American Type Culture Collection (ATCC, Manassas, VA). The A549 (ATCC: CCL-185) lung cancer cell line was grown in F12K media with 10% FBS and 1% penicillin/streptomycin supplementation. Both the U-138 MG (ATCC: HTB-16) glioblastoma cancer cell line and IMR-90 (ATCC: CCL-186) lung fibroblast control cell line were grown in Eagle’s Minimum Essential Medium (EMEM) with supplementation as in A549. Caco-2 (ATCC: HTB-37) colorectal cancer was grown in EMEM with 20% FBS and 1% penicillin/streptomycin. All cell lines were incubated at 37°C in 5% CO2 with passaging every 4–7 days. […]
The MTT (3-(4,5-dimethylthiazol-2-yl)-2,5-diphenyltetrazolium bromide) cellular viability assay was performed in all three cancer cell lines and the non-cancer cell line. […] The MTT assay was run for 2 hours, then well contents were rapidly evacuated out and all wells were treated with MTT solubilization solution [10% Triton X-100 in acidic (0.1N HCl) isopropanol] for 15 minutes before the plates were read using a BioTek Synergy HT microplate plate reader (570 nm and 690 nm absorbance wavelengths). […]
GraphPad Prism v6 (La Jolla, CA) was used for all statistical analysis. Nuclear fraction platinum uptake as a total percent of combined nuclear and cytosolic uptake was analyzed using a one-way ANOVA (Brown-Forsyth test; p ≤ 0.05). […]

| Compound | effect on utricle hair cell density compared to vehicle [1] | IC50 [2] [µM] | Relative rate (rate constant divided by the rate constant for [Pt(dien)Cl]^+) (5'-GMP) | Rate constant for the reaction of 5'-GMP with the platinum(II) complex (5'-GMP) | factor by which cellular viability is reduced more than by pyriplatin [3] | fold reduction in the rate relative to [Pt(dien)Cl]^+ (5'-GMP) | Rate constant for the reaction of 5'-GMP with the platinum(II) complex (5'-GMP; listed as phenanthriplatin) |
| --- | --- | --- | --- | --- | --- | --- | --- |
| [Cl][Pt-2]12[NH2+]CC[NH+]1CC[NH2+]2 (stereo not drawn) [[Pt(dien)Cl]^+, Pt(diethylenetriamine)Cl] | one elevated mean hair cell density count at S2 | 198 ± 4.8 | 1 | 3.9 ± 0.1 x 10^−1 M^-1s^-1 and 3.9 (+/- 0.1) x 10^−1 M^-1s^-1 |  |  |  |
| phenanthriplatin |  |  | 0.041 | 1.63 (+/- .02) x 10^−2 M^-1s^-1 | at least 10 | ~ 25 fold | 1.63 ± 0.02 x 10^-2 M^-1s^-1 |
